Reference: patent publication EP0703776B1, “UTILIZATION OF A PEPTIDE HAVING A LYSIN GROUP AND AN ALANINE GROUP IN THE TERMINAL POSITION FOR THE PREPARATION OF A DEPIGMENTING COMPOSITION, AND DEPIGMENTING COMPOSITION THUS OBTAINED” (PARFUMS CHRISTIAN DIOR, priority 1993, dated 1997)
No end group written: not given here.

Tested on: tyrosinase de champignon
Assay: Tyrosinase inhibition (kinetics of dopaquinone formation at 480 nm, substrates L-tyrosine + L-dopa)
Assay type: biochemical

pourcentage d'inhibition de la tyrosinase (peptide 5.10^-3 M, series T0 (substrates added at time T0)): 98% | pourcentage d'inhibition de la tyrosinase (peptide 5.10^-4 M, series T 15 min (substrates added 15 min after mixing peptide and tyrosinase)): 98% | effet d'inhibition de la tyrosinase (peptide 5.10^-6 M, result in words): déjà très significative
Substance: KCTCCA (cysteine pairing not given here) [hexapeptide, commercialement disponible chez Sigma, France]
